Results on 9 molecules are retold here after patent US20240059688A1, “CONOLIDINE ANALOGUES AS SELECTIVE ACKR3 MODULATORS FOR THE TREATMENT OF CANCER” (Luxembourg Institute of Health (LIH), priority 2020, published 2024).

One test concerns the target ACKR3 (Homo sapiens, UniProt P25106). Nature of the test: ACKR3 β-arrestin recruitment assay (PathHunter, β-galactosidase complementation). The conditions noted are these: for EC50: stable human ACKR3-β-arrestin-2-CHO cells, mean ± SEM, at least two independent experiments in duplicate; for Emax: read-out: ACKR3 β-arrestin % CXCL12 Emax ± SEM. In kind it is cell-based. The method, then: (§1) Compounds were evaluated for agonist activity using a β-arrestin recruitment assay based on β-galactosidase complementation (PathHunter, DiscoverX). Stable human ACKR3-β-arrestin-2-CHO cells (DiscoverX) were plated into 96-well white-walled assay plates at 15,000 cells/well in Cell Plating Reagent 2 (DiscoveRx) and incubated at 37° C., 5% CO2 overnight. The next day, test compounds were prepared at 10× concentration in DPBS/1% DMSO and 10 μL was added to the cells. CXCL-12 was included as a positive agonist control. Following a 1.5 hr incubation at 37° C., 55 μL of detection reagent (prepared according to the manufacturer's specifications) was added to each well. The plate was incubated at room temperature for 1 hr, after which luminescence was measured at 1 sec/well using an EnSpire multimode plate reader (PerkinElmer). Relative luminescence units (RLU) were plotted against the log of compound concentration and data were fit to a three-parameter logistic curve to generate EC50 values (GraphPad Prism). EC50 and % Emax values are reported as means±SEM and are the result of at least two independent experiments performed in duplicate. The CXCR4 assay was run similarly except that human CXCR4-C2Cl2 cells (DiscoverX) were plated at 20,000 cells/well in Cell Plating Reagent 9. The next day, the media was removed and cells were incubated with Cell Plating Reagent 4 for 3 hrs, after which the assay was conducted as described above.
Background: Activated receptors often draw arrestin, which recruitment assays turn into a signal.

Another test concerns the target T1, human CXCR4 (Homo sapiens, UniProt P61073).
T1 construct: host or cells: C2C12
Nature of the test: CXCR4 β-arrestin recruitment assay (PathHunter). The test is classed as cell-based. The conditions noted are these: human CXCR4-C2Cl2 cells, relative to CXCL-12. The procedure:
as §1

T1 sequence (P61073 whole entry): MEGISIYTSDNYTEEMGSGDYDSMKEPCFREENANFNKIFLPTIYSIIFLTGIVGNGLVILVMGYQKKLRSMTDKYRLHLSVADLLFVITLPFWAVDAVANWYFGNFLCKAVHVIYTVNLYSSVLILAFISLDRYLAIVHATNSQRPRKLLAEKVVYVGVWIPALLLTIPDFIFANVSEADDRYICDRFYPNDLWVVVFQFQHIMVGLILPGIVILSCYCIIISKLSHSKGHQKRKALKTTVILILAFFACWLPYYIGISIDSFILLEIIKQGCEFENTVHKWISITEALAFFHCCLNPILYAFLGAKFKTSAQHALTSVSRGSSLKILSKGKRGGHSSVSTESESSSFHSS
Sequence of ACKR3 (P25106 whole entry): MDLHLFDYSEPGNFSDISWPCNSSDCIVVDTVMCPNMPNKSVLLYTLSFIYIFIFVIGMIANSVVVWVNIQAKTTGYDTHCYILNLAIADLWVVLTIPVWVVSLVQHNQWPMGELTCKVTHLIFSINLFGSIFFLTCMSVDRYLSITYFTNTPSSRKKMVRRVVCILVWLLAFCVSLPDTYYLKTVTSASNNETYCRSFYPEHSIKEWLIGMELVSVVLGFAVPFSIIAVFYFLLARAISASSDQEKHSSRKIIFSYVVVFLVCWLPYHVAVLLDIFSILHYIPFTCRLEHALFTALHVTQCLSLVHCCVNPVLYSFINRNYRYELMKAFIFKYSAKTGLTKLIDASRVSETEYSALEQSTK

`C/C=C1/CN(CCCCC)CC[C@H]1C(=O)c1cc2cc(C(C)=O)ccc2n1CCCCC` [WW-66, 1-(2-{[(3E,4R)-3-ethylidene-1-pentylpiperidin-4-yl]carbonyl}-1-pentyl-1H-indol-5-yl)ethanone]: at ACKR3, the EC50 was greater than 10 µM. For the same molecule, the “CXCR4 β-arrestin % CXCL-12Emax (n = 2)” value at human CXCR4 came to 8%.

For `C/C=C1/CN(CCCCCCC)CC[C@H]1C(=O)c1cc2ccccc2[nH]1` [WW-67, [(3E,4R)-3-ethylidene-1-heptylpiperidin-4-yl](1H-indol-2-yl)methanone], at ACKR3, the Emax was determined as 135 ± 4% and the midpoint of the response, the EC50, lay at 2.46 ± 0.27 µM. Moreover, the “CXCR4 β-arrestin % CXCL-12Emax (n = 2)” value at human CXCR4 stood at 12%.

`C/C=C1/CN(CC2CCCCC2)CC[C@H]1C(=O)c1cc2ccccc2[nH]1` [WW-68, [(3E,4R)-1-(cyclohexylmethyl)-3-ethylidenepiperidin-4-yl](1H-indol-2-yl)methanone]: at ACKR3, the Emax was determined as 136 ± 3% and a half-maximal effect (EC50) was put at 3.61 ± 0.39 µM. Further, at human CXCR4, the “CXCR4 β-arrestin % CXCL-12Emax (n = 2)” value is given as 8%.

As to `C/C=C1/CN(Cc2ccc(OC)cc2)CC[C@H]1C(O)c1cc2cc(-c3ccc(F)cc3)ccc2n1S(=O)(=O)c1ccccc1` (some centres unmarked) [WW-69], at ACKR3, the maximal response (Emax) stood at 79 ± 6% and the EC50 amounted to 1.68 ± 0.3 µM. Besides, the “CXCR4 β-arrestin % CXCL-12Emax (n = 2)” value at human CXCR4 is given as 11%.

In the case of `C/C=C1/CN(Cc2ccc(OC)cc2)CC[C@H]1C(O)c1cc2cc(C#N)ccc2n1S(=O)(=O)c1ccccc1` (some centres unmarked) [WW-70, 2-{[(3E, 4R)-(3-ethylidene-1-(4-methoxybenzyl)piperidin-4-yl)](hydroxy)methyl}-1-(phenylsulfonyl)-1H-indole-5-carbonitrile], at ACKR3, the EC50 is greater than 10 µM. For the same molecule, on human CXCR4, the “CXCR4 β-arrestin % CXCL-12Emax (n = 2)” value is on record as −2%.

`C/C=C1/CN(CCCCCC(=O)OC)CC[C@H]1C(=O)c1cc2ccccc2[nH]1` [WW-71, Methyl 6-[(3E,4R)-3-ethylidene-4-(1H-indol-2-ylcarbonyl)piperidin-1-yl]hexanoate] yielded a concentration for a half-maximal effect (EC50) at ACKR3 greater than 10 µM. On human CXCR4, the “CXCR4 β-arrestin % CXCL-12Emax (n = 2)” value is reported as 4%.

For `C/C=C1/CN(CCCCOc2ccccc2)CC[C@H]1C(=O)c1cc2ccccc2[nH]1` [WW-72, (3E,4R)-(3-ethylidene-1-(4-phenoxybutyl)piperidin-4-yl)(1H-indol-2-yl)methanone], at ACKR3, the Emax was determined as 145 ± 16% and the EC50 came to 3.78 ± 0.98 µM. Also, the “CXCR4 β-arrestin % CXCL-12Emax (n = 2)” value on human CXCR4 stood at 4%.

In the case of `C/C=C1/CN(CCCCC)CC[C@H]1C(=O)c1cc2cc(-c3ccc(F)cc3)ccc2[nH]1` [WW-73, [(3E,4R)-3-ethylidene-1-pentylpiperidin-4-yl][5-(4-fluorophenyl)-1H-indol-2-yl]methanone], the concentration giving a half-maximal response (EC50) at ACKR3 was greater than 10 µM. Besides, on human CXCR4, the “CXCR4 β-arrestin % CXCL-12Emax (n = 2)” value is listed as 9%.

`C/C=C1/CN(CCCCC)CC[C@H]1C(O)c1cc2ccccc2n1S(=O)(=O)c1ccccc1` (some centres unmarked) [WW-74]: on ACKR3, the Emax stood at 172 ± 6% and the 50% effective concentration (EC50) came to 0.177 ± 0.01 µM. In addition, at human CXCR4, the “CXCR4 β-arrestin % CXCL-12Emax (n = 2)” value was 3%.

Broadly, the EC50 is the concentration at which the effect is half-maximal. A high value points to weaker potency. What is called Emax is the size of the effect at its maximum, as opposed to the concentration needed.
